Source: patent US10722501B2 (BAYER AKTIENGESELLSCHAFT, priority 2016, dated 2020)

Target: T1, recombinant full-length human prolyl endopeptidase (PREP) (Homo sapiens, UniProt P48147)
T1 construct: To recombinant full-length human prolyl endopeptidase (PREP, R&D-Systems, 4308-SE); purchased R&D-Systems 4308-SE
T1 sequence (P48147 1-710): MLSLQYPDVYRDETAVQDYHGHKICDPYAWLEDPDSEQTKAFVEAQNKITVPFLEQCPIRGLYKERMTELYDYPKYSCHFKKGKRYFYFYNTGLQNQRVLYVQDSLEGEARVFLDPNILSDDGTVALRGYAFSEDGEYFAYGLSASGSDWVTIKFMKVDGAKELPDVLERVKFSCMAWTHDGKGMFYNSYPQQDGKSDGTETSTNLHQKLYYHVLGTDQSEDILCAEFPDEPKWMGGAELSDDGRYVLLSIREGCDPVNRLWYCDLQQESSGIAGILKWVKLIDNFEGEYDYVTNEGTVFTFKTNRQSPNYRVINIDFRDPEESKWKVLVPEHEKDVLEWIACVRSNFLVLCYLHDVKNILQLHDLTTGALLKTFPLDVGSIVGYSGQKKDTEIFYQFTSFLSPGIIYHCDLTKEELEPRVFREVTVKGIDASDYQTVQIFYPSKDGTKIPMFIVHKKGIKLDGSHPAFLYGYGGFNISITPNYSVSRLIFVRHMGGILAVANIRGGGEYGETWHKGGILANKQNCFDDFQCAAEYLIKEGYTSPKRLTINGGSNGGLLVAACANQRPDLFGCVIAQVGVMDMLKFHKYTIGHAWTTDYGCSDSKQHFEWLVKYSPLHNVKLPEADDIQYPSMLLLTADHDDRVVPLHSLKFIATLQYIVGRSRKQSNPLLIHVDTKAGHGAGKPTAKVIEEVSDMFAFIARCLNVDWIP
Test: Biochemical human prolyl endopeptidase (PREP) assay with fluorescently labelled substrate
Settings: substrate Z-Gly-Pro-AMC 50 μM, 32° C., 60 min; some as mean values from multiple independent determinations
How it was run: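 Initial rates of fluorescence increase from 50 μM Z-Gly-Pro-AMC cleavage (ex 360/em 465 nm, 60 min, 32° C) give percent PREP activity versus no-compound control, and IC50 is interpolated. Enzyme used at 0.4 nM (final, example) in Tris pH 7.5 with EDTA, GSH, BSA and Brij-35; compounds span 1 nM to 30 μM.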

Compound	IC50
O=C([C@@H]1CCCc2nn(Cc3ccc(C(F)(F)F)nc3)c(=O)n21)N1CC2CC1C2 [Example 199, (5S)-5-(2-Azabicyclo[2.1.1]hex-2-ylcarbonyl)-2-{[6-(trifluoromethyl)pyridin-3-yl]methyl}-5,6,7,8-tetrahydro[1,2,4]triazolo[4,3-a]pyridin-3(2H)-one]	59 nM
Cc1ccc(Cn2nc3n(c2=O)[C@H](C(=O)N2C[C@H](F)[C@@H](F)C2)CCC3)cc1 [Example 140, (5S)-5-{[(3S,4S)-3,4-Difluoropyrrolidin-1-yl]carbonyl}-2-(4-methylbenzyl)-5,6,7,8-tetrahydro[1,2,4]triazolo[4,3-a]pyridin-3(2H)-one]	16 nM
O=C(C1CC(C(F)(F)F)Cc2nn(Cc3ncc(F)cc3Cl)c(=O)n21)N1CCC(F)(F)C1 (racemic) [Example 575, (5RS,7RS)-2-[(3-Chloro-5-fluoropyridin-2-yl)methyl]-5-[(3,3-difluoropyrrolidin-1-yl)carbonyl]-7-(trifluoromethyl)-5,6,7,8-tetrahydro[1,2,4]triazolo[4,3-a]pyridin-3(2H)-one]	7.4 nM
O=C(C1CCCc2nn(Cc3cccc(F)c3)c(=O)n21)N1CCC(F)(F)C1 (racemic) [Example 56, (5RS)-5-[(3,3-Difluoropyrrolidin-1-yl)carbonyl]-2-(3-fluorobenzyl)-5,6,7,8-tetrahydro[1,2,4]triazolo[4,3-a]pyridin-3(2H)-one]	5.6 nM
O=C([C@@H]1CCCc2nn(Cc3ncc(Cl)cc3Cl)c(=O)n21)N1CC(F)C1 [Example 398, (5S)-2-[(3,5-Dichloropyridin-2-yl)methyl]-5-[(3-fluoroazetidin-1-yl)carbonyl]-5,6,7,8-tetrahydro[1,2,4]triazolo[4,3-a]pyridin-3(2H)-one]	1.19 nM
Cc1ccc(Cn2nc3n(c2=O)[C@H](C(=O)N2CCC(O)(C(F)(F)F)C2)CCC3)cc1 (mixture of isomers) [Example 152, (5S)-5-{[(3RS)-3-Hydroxy-3-(trifluoromethyl)pyrrolidin-1-yl]carbonyl}-2-(4-methylbenzyl)-5,6,7,8-tetrahydro[1,2,4]triazolo[4,3-a]pyridin-3(2H)-one]	38 nM
CC1CCC(C(=O)N2CC[C@H](F)C2)n2c1nn(Cc1ccc(F)cc1F)c2=O (mixture of isomers) [Example 326, (5RS,8RS)-2-(2,4-Difluorobenzyl)-5-{[(3S)-3-fluoropyrrolidin-1-yl]carbonyl}-8-methyl-5,6,7,8-tetrahydro[1,2,4]triazolo[4,3-a]pyridin-3(2H)-one]	1.5 nM
O=C(C1C(C(F)(F)F)CCc2nn(Cc3ncc(Cl)cc3Cl)c(=O)n21)N1CCC(F)(F)C1 (racemic) [Example 289, (5RS,6RS)-2-[(3,5-Dichloropyridin-2-yl)methyl]-5-[(3,3-difluoropyrrolidin-1-yl)carbonyl]-6-(trifluoromethyl)-5,6,7,8-tetrahydro[1,2,4]triazolo[4,3-a]pyridin-3(2H)-one]	117 nM
Cc1ccc(Cn2nc3n(c2=O)C(C(=O)N2CC[C@H](O)C2)CCC3)cc1 (single isomer, unassigned) [Example 116]	3 nM
O=C([C@@H]1CCCc2nn(Cc3ccc(C(F)F)nc3)c(=O)n21)N1CC(F)C1 [Example 209, (5S)-2-{[6-(Difluoromethyl)pyridin-3-yl]methyl}-5-[(3-fluoroazetidin-1-yl)carbonyl]-5,6,7,8-tetrahydro[1,2,4]triazolo[4,3-a]pyridin-3(2H)-one]	5.5 nM
O=C([C@@H]1CCCc2nn(Cc3cccc(Cl)n3)c(=O)n21)N1CCC(F)(F)C1 [Example 383, (5S)-2-[(6-Chloropyridin-2-yl)methyl]-5-[(3,3-difluoropyrrolidin-1-yl)carbonyl]-5,6,7,8-tetrahydro[1,2,4]triazolo[4,3-a]pyridin-3(2H)-one]	8.55 nM
O=C(C1CC(C(F)(F)F)Cc2nn(Cc3ncc(F)cc3F)c(=O)n21)N1CCC(F)(F)C1 (racemic) [Example 573, (5RS,7RS)-2-[(3,5-Difluoropyridin-2-yl)methyl]-5-[(3,3-difluoropyrrolidin-1-yl)carbonyl]-7-(trifluoromethyl)-5,6,7,8-tetrahydro[1,2,4]triazolo[4,3-a]pyridin-3(2H)-one]	5.9 nM
O=C([C@@H]1CCCc2nn(Cc3cncc(Cl)c3)c(=O)n21)N1CCC(F)(F)C1 [Example 435, (5S)-2-[(5-Chloropyridin-3-yl)methyl]-5-[(3,3-difluoropyrrolidin-1-yl)carbonyl]-5,6,7,8-tetrahydro[1,2,4]triazolo[4,3-a]pyridin-3(2H)-one]	2.65 nM
O=C(C1CCCc2nn(Cc3ccc(F)c(F)c3)c(=O)n21)N1CCC(F)(F)C1 (racemic) [Example 83, (5RS)-2-(3,4-Difluorobenzyl)-5-[(3,3-difluoropyrrolidin-1-yl)carbonyl]-5,6,7,8-tetrahydro[1,2,4]triazolo[4,3-a]pyridin-3(2H)-one]	2.1 nM
Cc1ccc(Cn2nc3n(c2=O)[C@H](C(=O)N2CC4(C2)CC4(F)F)CCC3)cc1 [Example 191, (5S)-5-[(1,1-Difluoro-5-azaspiro[2.3]hex-5-yl)carbonyl]-2-(4-methylbenzyl)-5,6,7,8-tetrahydro[1,2,4]triazolo[4,3-a]pyridin-3(2H)-one]	2.8 nM
O=C([C@@H]1CCCc2nn(Cc3ccnc(C(F)(F)F)n3)c(=O)n21)N1CCCC1 [Example 94, (5S)-5-(Pyrrolidin-1-ylcarbonyl)-2-{[2-(trifluoromethyl)pyrimidin-4-yl]methyl}-5,6,7,8-tetrahydro[1,2,4]triazolo[4,3-a]pyridin-3(2H)-one]	57 nM

Compounds with a lower IC50, results first:

IC50	Compound
0.575 nM	O=C(C1CCCc2nn(Cc3ccc(F)c(Cl)c3)c(=O)n21)N1CCCC1 (racemic) [Example 18, (5RS)-2-(3-Chloro-4-fluorobenzyl)-5-(pyrrolidin-1-ylcarbonyl)-5,6,7,8-tetrahydro[1,2,4]triazolo[4,3-a]pyridin-3(2H)-one]
0.11 nM	O=C([C@@H]1CCCc2nn(Cc3ccc(F)cc3F)c(=O)n21)N1C[C@@H](F)[C@@H](F)C1 [Example 489, (5S)-2-(2,4-Difluorobenzyl)-5-{[(3R,4S)-3,4-difluoropyrrolidin-1-yl]carbonyl}-5,6,7,8-tetrahydro[1,2,4]triazolo[4,3-a]pyridin-3(2H)-one]
0.295 nM	O=C([C@@H]1CCCc2nn(Cc3ccnc(C(F)(F)F)c3F)c(=O)n21)N1CC[C@H](F)C1 [Example 484, (5S)-5-{[(3S)-3-Fluoropyrrolidin-1-yl]carbonyl}-2-{[3-fluoro-2-(trifluoromethyl)pyridin-4-yl]methyl}-5,6,7,8-tetrahydro[1,2,4]triazolo[4,3-a]pyridin-3(2H)-one]
0.623 nM	O=C(C1CC(C(F)(F)F)Cc2nn(Cc3ccc(Cl)nc3)c(=O)n21)N1CC[C@H](F)C1 (single isomer, unassigned) [Example 243]
0.26 nM	Cc1ccc(Cn2nc3n(c2=O)[C@H](C(=O)N2CCC(C)(F)C2)CCC3)cc1 (mixture of isomers) [Example 151, (5S)-5-{[(3RS)-3-Fluoro-3-methylpyrrolidin-1-yl]carbonyl}-2-(4-methylbenzyl)-5,6,7,8-tetrahydro[1,2,4]triazolo[4,3-a]pyridin-3(2H)-one]
0.69 nM	Cc1ccc(Cn2nc3n(c2=O)[C@H](C(=O)N2CC(C)(F)C2)CCC3)cc1 [Example 195, (5S)-5-[(3-Fluoro-3-methylazetidin-1-yl)carbonyl]-2-(4-methylbenzyl)-5,6,7,8-tetrahydro[1,2,4]triazolo[4,3-a]pyridin-3(2H)-one]
0.84 nM	O=C(C1CCCc2nn(Cc3cc(Cl)cc(Cl)c3)c(=O)n21)N1CCCC1 (racemic) [Example 81, (5RS)-2-(3,5-Dichlorobenzyl)-5-(pyrrolidin-1-ylcarbonyl)-5,6,7,8-tetrahydro[1,2,4]triazolo[4,3-a]pyridin-3(2H)-one]
0.15 nM	Cc1ccc(Cn2nc3n(c2=O)[C@H](C(=O)N2CCSC2)CCC3)cc1 [Example 108, (5S)-2-(4-Methylbenzyl)-5-(1,3-thiazolidin-3-ylcarbonyl)-5,6,7,8-tetrahydro[1,2,4]triazolo[4,3-a]pyridin-3(2H)-one]
0.068 nM	O=C([C@@H]1CCCc2nn(CC3(c4ccc(F)cc4F)CC3)c(=O)n21)N1CC[C@H](F)C1 [Example 358]
0.091 nM	Cc1ccc(Cn2nc3n(c2=O)[C@H](C(=O)N2CCC4CC42)CCC3)cc1 (single isomer, unassigned) [Example 188]
0.425 nM	O=C([C@@H]1CCCc2nn(Cc3ccc(C(F)(F)F)c(F)c3)c(=O)n21)N1CC[C@H](F)C1 [Example 471, (5S)-5-{[(3S)-3-Fluoropyrrolidin-1-yl]carbonyl}-2-[3-fluoro-4-(trifluoromethyl)benzyl]-5,6,7,8-tetrahydro[1,2,4]triazolo[4,3-a]pyridin-3(2H)-one]
